Assay results taken from patent US20260042747A1, “KIT INHIBITORS, COMPOUNDS, PHARMACEUTICAL COMPOSITIONS, AND METHODS OF USE THEREOF” (Alivexis, Inc., priority 2022, published 2026).
Where a name gives a salt, the structure may show the parent alone. Read-outs that look alike come from different tables or passages of the source.

Key:
[1] = biological target: recombinant human KIT tyrosine kinase protein (Homo sapiens (Human), UniProt P10721); experiment: KIT tyrosine kinase assay (ADP-Glo); assay type: biochemical
[2] = system: M-07e cells; experiment: SCF-dependent M-07e cell proliferation assay; assay type: cell-based, human; conditions: read-out: M-07e IC50
Protocol: SCF-dependent cell proliferation assay was developed to measure the inhibitory potency of the compounds in M-07e cells, which express wild-type human KIT protein. The assay was performed in 96-well plates and the IC50 of each KIT inhibitor was determined by CellTiter Glo Assay reagent and Victor X5 Multilabel Counter (Perkin Elmer).
M-07e cells were purchased from AcceGen Biotechnology. Cells were maintained with M-07e Growth medium: RPMI-1640 containing 20% FBS, 100 U/mL penicillin and 100 microgram/mL streptomycin, 10 ng/mL rhGM-CSF, 10 ng/mL rhSCF. M-07e cells were seeded at a density of 5000 cells/90 μL/well in 96-well plates. Test compounds were dissolved in 100% DMSO to make 20 mM stock solution and serially diluted 1:3 with 100% DMSO to make an 11-point dilution series with concen-trations from […] to 0.024 μM. The serially diluted compounds were then each diluted 1:50 with culture medium to obtain assay compound solutions containing 2% DMSO. Ten μL of assay compound solutions were added to the 90 μL of culture cell suspension in the 96-well plate, with a final DMSO concentration of 0.2%. The plates were then incubated in a 5% CO2 incubator at 37° C. for 3 days. To obtain Day Zero Controls for background calculation, cells were seeded at 5000 cells/100 μL in a new 96-well plate and processed on the same day. Both Day Zero controls and 3 day culture plates were then treated as follows. 100 μL of CellTiter Glo Assay reagent was added to each well and the plate was incubated at room temperature for 15 min on a shaker at 200-300 RPM. Then 100 μL of cell lysate samples were transferred to white wall 96-well plates and luminescence was measured by a plate reader. The luminescence of Day Zero Control was subtracted from the luminescence intensity of 3 day culture readings. The assay control for this experiment was cells treated with 0.2% DMSO in culture medium and wells with 100 μL of culture medium (0.2% DMSO without cells) were used as the blank for data analysis.
The IC50 value of each compound was determined by using % inhibition by nor-malizing inhibition in DMSO treated control wells to 0% using the following formula method: […]
Plot percent inhibition in proliferation of triplicates against the respective concen-trations of compound and fit the dose response curve using the sigmoidal dose response equation to generate the IC50 in GraphPad Prism 8 software.

[3] = Homo sapiens, M-07e, 72 h, SCF-dependent M-07e cell proliferation, 3 days, CellTiter Glo

Sequence of recombinant human KIT tyrosine kinase protein (P10721 546-976): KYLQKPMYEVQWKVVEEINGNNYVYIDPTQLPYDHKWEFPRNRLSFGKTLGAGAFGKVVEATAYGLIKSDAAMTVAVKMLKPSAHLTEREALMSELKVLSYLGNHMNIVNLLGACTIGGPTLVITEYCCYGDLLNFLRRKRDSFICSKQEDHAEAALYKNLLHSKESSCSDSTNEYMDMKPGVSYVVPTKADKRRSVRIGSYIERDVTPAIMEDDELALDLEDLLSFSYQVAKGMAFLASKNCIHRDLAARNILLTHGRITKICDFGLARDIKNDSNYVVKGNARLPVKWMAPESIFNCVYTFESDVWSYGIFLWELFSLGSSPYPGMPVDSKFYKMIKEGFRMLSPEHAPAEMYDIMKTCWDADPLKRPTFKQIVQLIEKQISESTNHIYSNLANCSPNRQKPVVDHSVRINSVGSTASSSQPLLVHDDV

SMILES	IC50 ([1]; Table 99) [nM]	IC50 ([2]; Homo sapiens, M-07e, 72 h) [nM]	IC50 ([2]; SCF-dependent M-07e cell proliferation, 3 days, CellTiter Glo) [nM]	IC50 [2, 3] [nM]	IC50 ([1]; Table 98) [nM]
CN(c1cnc(CNC(=O)c2cc3[nH]c(=O)[nH]c3cc2F)cn1)C1CCC(F)(F)C1 (stereo not shown) [Example 138]	35	4570			
CN(c1ccc(CNC(=O)c2ccc3c(c2)[nH]c(=O)n3C)cn1)C1CC(OC(F)F)C1 (single isomer, unassigned) [106 Isomer I, N-((6-((3-(Difluoromethoxy)cyclobutyl)(methyl)amino)pyridin-3-yl)methyl)-1-methyl-2-oxo-2,3-dihydro-1H-benzimidazole-5-carboxamide]	36		15		
CN(c1ccc(CNC(=O)c2ccc3c(c2)[nH]c(=O)n3C)cn1)C1CC2(CC2)C1 [Example 109, 1-Methyl-N-((6-(methyl(spiro[2.3]hexan-5-yl)amino)pyridin-3-yl)methyl)-2-oxo-2,3-d ihydro-1H-benzimidazole-5-carboxamide formate]	25			12	
CN(c1ccc(CNC(=O)c2ccc3c(c2)[nH]c(=O)n3C)cn1)C12CC(C)(C1)C2 [Example 78]		150			26
CN(c1ccc(CNC(=O)c2cc3[nH]c(=O)[nH]c3cc2F)cn1)[C@H]1C[C@@H](C(F)(F)F)C1 [Example 137]	23			36	
CN(CCC(F)(F)F)c1ccc(CNC(=O)c2ccc3c(c2)[nH]c(=O)n3C)cn1 [Example 67]		220			25
CN(c1ccc(CNC(=O)c2ccc3c(c2)[nH]c(=O)n3C)cn1)[C@H]1C[C@@H]1C(F)(F)F [Example 127]	47	1320			
CN(c1ccc(CNC(=O)c2cc3[nH]c(=O)[nH]c3cc2F)cn1)C1CCC(F)(F)CC1 [Example 135]	30			589	
CN(c1ccc(CNC(=O)c2ccc3c([nH]c(=O)n3C)c2F)cn1)C1CCC(F)(F)C1 (stereo not shown) [Example 147]	23			440	
CN(c1ccc(CNC(=O)c2ccc3c(c2)[nH]c(=O)n3C)cn1)C1Cc2ccccc2C1 [Example 120]	45	206			
Cn1c(=O)[nH]c2cc(C(=O)NCc3ccc(N(C)[C@H]4C[C@@H](C(F)(F)F)C4)nc3)ccc21 [Compound 12, 1-Methyl-N-((6-(methyl(cis-3-(trifluoromethyl)cyclobutyl)amino)pyridin-3-yl)methyl)-2-oxo-2,3-dihydro-1H-benzimidazole-5-carboxamide]				38	36
CN(c1ccc(CNC(=O)c2ccc3c(c2)[nH]c(=O)n3C)cn1)[C@@H]1CCC(F)(F)C1 [Example 122]	32	14			
CN(c1ccc(CNC(=O)c2ccc3c(c2)[nH]c(=O)n3C)cn1)c1ccccc1F [Example 59]		190			14
CC(NC(=O)c1ccc2c(c1)[nH]c(=O)n2C)c1ccc(N(C)C(C)C)nc1 (single isomer, unassigned) [130 Peak 1]	79			621	
Cn1c(=O)[nH]c2cc(C(=O)NCc3cnc4c(c3)CCN4c3ccccc3F)ccc21 [Compound 19, N-((1-(2-Fluorophenyl)-2,3-dihydro-1H-pyrrolo[2,3-b]pyridin-5-yl)methyl)-1-methyl-2-o xo-2,3-dihydro-1H-benzimidazole-5-carboxamide]				160	60
CC(C)N(C)c1ccc(CNC(=O)c2cc3[nH]c(=O)[nH]c3cc2F)cn1 [Example 136]	27			209	
CN(c1ccc(F)cc1)c1ccc(CNC(=O)c2ccc3c(c2)[nH]c(=O)n3C)cn1 [Compound 9, N-((6-((4-Fluorophenyl)(methyl)amino)pyridin-3-yl)methyl)-1-methyl-2-oxo-2,3-dihydro-1H-benzimidazole-5-carboxamide trifluoroacetate]				610	34
